Data published in patent publication US20030158254A1, “Engineering absorption of therapeutic compounds via colonic transporters” (XenoPort, Inc., priority 2002, published 2003).

Columns and labels:
HEK cells = experiment: pH assay of uptake by transporters naturally expressed in HEK cells, with and without phloretin; assay type: cell-based, human; settings: phloretin 0.5 mM, FIG. 1
Method: Although HEK's are a kidney derived cell line, they express some of the same transporters as the colon and can be used as a preliminary screen to identify substrates of colon-expressed transporters.
Cells were seeded at 100,000/well in 96 black, clear bottom plate overnight and washed twice in 100 μL buffer I at room temperature.
Cells were loaded with […] 2,7-bis-(2-carboxyethyl)-5-carboxyfluoroscein acetoxymethyl ester (BCECF AM) (resuspended in 50:50 dimethylsulfoxide:Pluronic™ surfactant mixture) in buffer 1 for 15 min. at 37° C. at 50 μL/well.
The rest of the protocol was performed at room temperature.
Cells were washed twice in buffer 2 at 50 μL/well. A first reading was taken in FLEX station in the buffer 2 at two sets of fluorescence excitation/emission wavelengths, 440/535 and 490/535, with 50 μL buffer/well. […] A second reading was taken in FLEX station at above settings (T0). […] A third reading was taken in FLEX station at above settings (T1). […]
For each well, values for A, B and C were calculated using the T0 and T1 data and the following equations:
A=measured fluorescence at excitation/emission wavelengths 440/535−background
B=measured fluorescence at excitation/emission wavelengths 490/535−background
The C values for the T0 and T1 data were used to determine the percent decrease in fluorescence at T1 relative to T0. […]

hSMVT [1] = target: T1, hSMVT (Homo sapiens, UniProt Q9Y289); experiment: Transport currents in SMVT-expressing Xenopus oocytes, normalized to biotin; assay type: cell-based; settings: response relative to biotin, transporter-expressing oocytes, test compound 0.5 mM
T1 sequence (Q9Y289 1-635): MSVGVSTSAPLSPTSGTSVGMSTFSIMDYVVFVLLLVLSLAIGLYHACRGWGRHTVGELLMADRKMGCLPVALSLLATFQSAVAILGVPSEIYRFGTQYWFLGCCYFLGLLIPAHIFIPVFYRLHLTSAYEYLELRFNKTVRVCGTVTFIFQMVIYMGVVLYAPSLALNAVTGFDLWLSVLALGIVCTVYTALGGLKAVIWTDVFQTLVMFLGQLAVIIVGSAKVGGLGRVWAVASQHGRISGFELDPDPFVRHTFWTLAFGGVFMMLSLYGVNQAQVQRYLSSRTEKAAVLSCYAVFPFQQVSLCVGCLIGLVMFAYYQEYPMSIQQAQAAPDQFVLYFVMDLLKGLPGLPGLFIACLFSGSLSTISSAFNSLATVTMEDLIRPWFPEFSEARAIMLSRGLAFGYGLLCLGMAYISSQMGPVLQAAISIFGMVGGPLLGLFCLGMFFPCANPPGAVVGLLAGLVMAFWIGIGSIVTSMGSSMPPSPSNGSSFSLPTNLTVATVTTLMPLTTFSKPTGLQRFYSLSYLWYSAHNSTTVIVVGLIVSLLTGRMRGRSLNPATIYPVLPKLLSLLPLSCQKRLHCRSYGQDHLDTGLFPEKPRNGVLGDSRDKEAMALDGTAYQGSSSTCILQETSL
Description: (§1) The complete open reading frame of human ATBO+(SLC6A14) and SMVT (SLC5A6) were amplified from human cDNA prepared from liver or intestine mRNA. Gene-specific oligonucleotide primers were designed against Genbank sequences (AF151978 and NM-021095). Amplified PCR products were cloned into a modified version of the mammalian expression vector pcDNA3 (termed pMO) that was engineered to contain the 5′ and 3′ untranslated regions from the Xenopus beta-globin gene. All clones were completely sequenced and tested for function by transient transfection in HEK293 cells.
cRNA for oocyte expression was prepared by linearization of plasmid cDNA and in vitro transcription using T7 polymerase (Epicentre Ampliscribe kit). Xenopus oocytes were prepared and maintained as previously described (Collins et al., PNAS […]:5456-5460 (1997)) and injected with 10-30 ng RNA. Transport currents were measured 2-6 days later using two-electrode voltage-clamp (Axon Instruments). All experiments were performed using a modified oocyte Ringers solution (90 mM NaCl, 2 mM KCl, 1.8 mM CaCl2, 1 mM MgCl2, and 10 mM Na HEPES, pH 7.4; in Na^+-free solutions 90 mM choline chloride was substituted for NaCl). The membrane potential of oocytes was held at −60 mV and current traces acquired using PowerLab software (AD Instruments). Full 7-concentration dose-responses were performed for each compound. […] Half-maximal concentrations were calculated using non-linear regression curve fitting software (Prism) with the Hill co-efficient fixed to 1. To ensure that currents were specific for the over-expressed transporter, all compounds were tested against uninjected oocytes. Since both ATBO+ and SMVT require Na^+ for transport, we confirmed transport specificity by application of the compounds in a Na^+-free solution.
In vitro transport data for selected compounds on hSMVT-expressing cells

[2] = Uptake of compounds through the rat colon (intracolonic dosing, gabapentin in blood by LC/MS/MS); assay type: in vivo; settings: dose equivalent to 25 mg gabapentin per kg, FIG. 3A
Method: Rats were obtained commercially and were pre-cannulated in the both the ascending colon and the jugular vein. Animals were conscious at the time of the experiment. All animals were fasted overnight and until 4 hours post-dosing. Prodrugs were administered as a solution (in water or polyethylene glycol 400) directly into the colon via the cannula at a dose equivalent to 25 mg of gabapentin per kg. Blood samples (0.5 mL) were obtained from the jugular cannula at intervals over 8 hours and were quenched immediately by addition of acetonitrile/methanol to prevent further conversion of the prodrug. Blood samples were analyzed as described in the attached sample analysis summary.
1. In blank 1.5 mL eppendorf tubes, add 300 μL of a 50/50 mixture of acetonitrile/methanol and 20 μL of the p-chlorophenylalanine as internal standard.
2. Rat blood was collected at different time points and immediately 100 μL of blood was added into the eppendorf tube and vortex to mix.
3. 10 μL of the gabapentin standard solution (0.04, 0.2, 1, 5, 25, 100 μg/mL) was added to 90 μL of blank rat blood to make up a final calibration standard (0.004, 0.02, 0.1, 0.5, 2.5, 10 μg/mL). […]
API 2000 LC/MS/MS mass spectrometer equipped with Shidmadzu 10ADVp binary pumps and an autosampler (CTC Analytics AG, High Throughput Screening-PAL) were used in the analysis. […] The peaks were integrated by the Analyst 1.1 quantitation software.

hSMVT [3] = target: T1, hSMVT; experiment: Radiolabeled competition assay in SMVT-expressing CHO cells; assay type: cell-based
Description: as §1, with “Gene-specific oligonucleotide primers were designed against Genbank sequences (AF151978 and NM-021095).” left out
For cell uptake studies, stable CHOK1 clones were seeded into polylysine coated 96-well microtitre plates and grown for 2-3 days. Cells were incubated with experimental solutions (combinations of radiolabeled and unlabeled compounds) for 30 minutes at room temperature, washed four times, and lysed in scintillation solution. Accumulation of radiolabeled molecules was measured in a microtitre scintillation plate reader (Perkin Elmer). Inhibition constants (IC50s) were calculated using curve-fitting software (Prism).

## CC(C)(C)C(=O)OCOC(=O)NCC1(CC(=O)O)CCCCC1 [Compound I, gabapentin pivaloxymethyl carbamate]
HEK cells
  Uptake by HEK cells in presence and absence of transporter inhibitor phloretin: phloretin substantially inhibits uptake of Compound I
hSMVT [1]
  % Max. (Biotin): 21%
[2]
  Colonic uptake determined from plasma concentration of gabapentin: taken up best

## CC(=O)OC(C)OC(=O)NCC1(CC(=O)O)CCCCC1 (stereo not drawn) [Compound IV, gabapentin acetoxyethyl carbamate]
hSMVT [3]
  IC50: 80 µM

## NCC1(CC(=O)O)CCCCC1 [Gabapentin, reference compound]
hSMVT [1]
  % Max. (Biotin): 0%
[2]
  Colonic uptake determined from plasma concentration of gabapentin: not taken up significantly
